Data set [1] has as its target T1, Muscarinic acetylcholine receptor M2 (Homo sapiens) (UniProt P08172).
T1 sequence (whole entry): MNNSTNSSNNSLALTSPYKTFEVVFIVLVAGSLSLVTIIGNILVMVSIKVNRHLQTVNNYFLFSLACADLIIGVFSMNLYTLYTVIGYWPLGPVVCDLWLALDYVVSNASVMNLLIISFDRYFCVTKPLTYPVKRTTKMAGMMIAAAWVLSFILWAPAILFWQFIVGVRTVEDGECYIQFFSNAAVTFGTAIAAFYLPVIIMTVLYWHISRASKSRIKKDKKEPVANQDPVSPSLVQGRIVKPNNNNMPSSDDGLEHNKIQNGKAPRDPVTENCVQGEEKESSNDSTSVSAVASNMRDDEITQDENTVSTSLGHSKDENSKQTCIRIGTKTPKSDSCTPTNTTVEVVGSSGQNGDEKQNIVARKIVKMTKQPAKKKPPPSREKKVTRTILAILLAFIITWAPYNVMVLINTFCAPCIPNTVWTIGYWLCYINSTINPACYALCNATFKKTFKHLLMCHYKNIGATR
The experiment in a line: Activity at muscarinic M2 receptor expressing in CHONFAT cells assessed as potentiation of acetylcholine-induced calcium mobilization preincubated for 4 mins and measured 4 mins after acetylcholine stimulation by FLIPR assay. It is filed as functional, cell-based. (Calcium flux is commonly read through the fluorescence of an indicator in the cells.)

For data set [2], the target named is Muscarinic acetylcholine receptor M3 (Homo sapiens) (UniProt P20309). The experiment in a line: Activity at muscarinic M3 receptor expressing in CHONFAT cells assessed as potentiation of acetylcholine-induced calcium mobilization preincubated for 4 mins and measured 4 mins after acetylcholine stimulation by FLIPR assay. It is filed as functional, cell-based.

Data set [3] deals with T2, Muscarinic acetylcholine receptor M4 (Homo sapiens) (UniProt P08173).
T2 sequence (whole entry): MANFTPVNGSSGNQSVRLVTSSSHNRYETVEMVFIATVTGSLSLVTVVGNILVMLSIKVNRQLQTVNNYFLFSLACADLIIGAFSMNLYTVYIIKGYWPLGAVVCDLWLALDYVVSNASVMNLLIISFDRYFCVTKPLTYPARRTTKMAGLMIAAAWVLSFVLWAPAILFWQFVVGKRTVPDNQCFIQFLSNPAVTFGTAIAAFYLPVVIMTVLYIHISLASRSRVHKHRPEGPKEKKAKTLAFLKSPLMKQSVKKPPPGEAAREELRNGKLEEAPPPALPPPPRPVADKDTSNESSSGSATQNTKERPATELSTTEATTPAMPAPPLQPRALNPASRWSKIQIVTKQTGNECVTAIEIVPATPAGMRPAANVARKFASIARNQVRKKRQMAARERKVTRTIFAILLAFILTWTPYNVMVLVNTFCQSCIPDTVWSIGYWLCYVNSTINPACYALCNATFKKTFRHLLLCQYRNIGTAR
As to the kind of experiment: Activity at muscarinic M4 receptor expressing in CHONFAT cells assessed as potentiation of acetylcholine-induced calcium mobilization preincubated for 4 mins and measured 4 mins after acetylcholine stimulation by FLIPR assay. In kind it is functional, cell-based.

Data set [4] deals with T3, Muscarinic acetylcholine receptor M1 (Homo sapiens) (UniProt P11229).
T3 sequence (whole entry): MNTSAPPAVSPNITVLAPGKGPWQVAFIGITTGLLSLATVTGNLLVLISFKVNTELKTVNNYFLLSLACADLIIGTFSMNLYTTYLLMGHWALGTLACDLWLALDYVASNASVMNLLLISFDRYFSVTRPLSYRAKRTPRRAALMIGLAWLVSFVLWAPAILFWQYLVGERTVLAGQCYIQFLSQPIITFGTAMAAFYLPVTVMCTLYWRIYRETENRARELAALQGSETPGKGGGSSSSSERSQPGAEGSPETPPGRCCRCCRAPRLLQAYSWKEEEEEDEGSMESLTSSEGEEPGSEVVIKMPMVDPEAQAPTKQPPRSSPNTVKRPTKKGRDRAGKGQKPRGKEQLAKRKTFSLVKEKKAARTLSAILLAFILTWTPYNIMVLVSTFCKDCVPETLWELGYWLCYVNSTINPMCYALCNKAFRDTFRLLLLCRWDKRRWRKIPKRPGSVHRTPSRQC
The experiment in a line: Positive allosteric modulation of human muscarinic M1 receptor expressing in CHONFAT cells assessed as potentiation of acetylcholine-induced calcium mobilization preincubated for 4 mins and measured 4 mins after acetylcholine stimulation by FLIPR assay. It is filed as functional, cell-based.

Data set [5] in a line: Protein binding in rat plasma. In kind it is ADME, cell-free. Conditions: read-out: PPB (converted).
A short description of data set [6]: Passive permeability across MDCK cells. It is filed as ADME, cell-based, Canis lupus familiaris. To be noted: dog.
Data set [7] can be described thus: Protein binding in human plasma. It is filed as ADME, cell-free. To be noted: read-out: PPB (converted).
The target of the next data set is MDR1a (P-gp, ABCB1) (Rattus norvegicus, UniProt P43245). As to the kind of experiment: in vitro. To be noted: not told.
For a further data set, the target named is MDR1 (P-gp, ABCB1) (Homo sapiens, UniProt P08183). As to the kind of experiment: in vitro. Conditions: not told.

The source made the active and inactive calls. The calls are words filed in the database; no cut-off is given here.

Muscarinic acetylcholine receptor M3 (Homo sapiens), sequence (P20309 whole entry, looked up): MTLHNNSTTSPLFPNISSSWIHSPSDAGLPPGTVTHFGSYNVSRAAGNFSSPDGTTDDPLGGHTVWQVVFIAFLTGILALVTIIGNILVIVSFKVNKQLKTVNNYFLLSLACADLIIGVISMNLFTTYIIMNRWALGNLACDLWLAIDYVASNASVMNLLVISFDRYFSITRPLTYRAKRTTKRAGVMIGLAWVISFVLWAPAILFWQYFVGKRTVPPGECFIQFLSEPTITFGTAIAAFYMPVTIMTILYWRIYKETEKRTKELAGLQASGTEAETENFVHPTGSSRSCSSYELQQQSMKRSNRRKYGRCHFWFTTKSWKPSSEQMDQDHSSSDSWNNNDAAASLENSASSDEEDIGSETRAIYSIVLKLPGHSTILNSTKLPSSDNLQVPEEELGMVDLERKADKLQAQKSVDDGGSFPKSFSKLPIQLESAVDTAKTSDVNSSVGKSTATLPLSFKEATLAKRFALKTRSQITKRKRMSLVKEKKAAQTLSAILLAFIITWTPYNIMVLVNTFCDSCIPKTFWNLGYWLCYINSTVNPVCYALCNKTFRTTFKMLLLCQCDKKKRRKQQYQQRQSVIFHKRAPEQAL
MDR1 (P-gp, ABCB1), sequence (P08183 whole entry): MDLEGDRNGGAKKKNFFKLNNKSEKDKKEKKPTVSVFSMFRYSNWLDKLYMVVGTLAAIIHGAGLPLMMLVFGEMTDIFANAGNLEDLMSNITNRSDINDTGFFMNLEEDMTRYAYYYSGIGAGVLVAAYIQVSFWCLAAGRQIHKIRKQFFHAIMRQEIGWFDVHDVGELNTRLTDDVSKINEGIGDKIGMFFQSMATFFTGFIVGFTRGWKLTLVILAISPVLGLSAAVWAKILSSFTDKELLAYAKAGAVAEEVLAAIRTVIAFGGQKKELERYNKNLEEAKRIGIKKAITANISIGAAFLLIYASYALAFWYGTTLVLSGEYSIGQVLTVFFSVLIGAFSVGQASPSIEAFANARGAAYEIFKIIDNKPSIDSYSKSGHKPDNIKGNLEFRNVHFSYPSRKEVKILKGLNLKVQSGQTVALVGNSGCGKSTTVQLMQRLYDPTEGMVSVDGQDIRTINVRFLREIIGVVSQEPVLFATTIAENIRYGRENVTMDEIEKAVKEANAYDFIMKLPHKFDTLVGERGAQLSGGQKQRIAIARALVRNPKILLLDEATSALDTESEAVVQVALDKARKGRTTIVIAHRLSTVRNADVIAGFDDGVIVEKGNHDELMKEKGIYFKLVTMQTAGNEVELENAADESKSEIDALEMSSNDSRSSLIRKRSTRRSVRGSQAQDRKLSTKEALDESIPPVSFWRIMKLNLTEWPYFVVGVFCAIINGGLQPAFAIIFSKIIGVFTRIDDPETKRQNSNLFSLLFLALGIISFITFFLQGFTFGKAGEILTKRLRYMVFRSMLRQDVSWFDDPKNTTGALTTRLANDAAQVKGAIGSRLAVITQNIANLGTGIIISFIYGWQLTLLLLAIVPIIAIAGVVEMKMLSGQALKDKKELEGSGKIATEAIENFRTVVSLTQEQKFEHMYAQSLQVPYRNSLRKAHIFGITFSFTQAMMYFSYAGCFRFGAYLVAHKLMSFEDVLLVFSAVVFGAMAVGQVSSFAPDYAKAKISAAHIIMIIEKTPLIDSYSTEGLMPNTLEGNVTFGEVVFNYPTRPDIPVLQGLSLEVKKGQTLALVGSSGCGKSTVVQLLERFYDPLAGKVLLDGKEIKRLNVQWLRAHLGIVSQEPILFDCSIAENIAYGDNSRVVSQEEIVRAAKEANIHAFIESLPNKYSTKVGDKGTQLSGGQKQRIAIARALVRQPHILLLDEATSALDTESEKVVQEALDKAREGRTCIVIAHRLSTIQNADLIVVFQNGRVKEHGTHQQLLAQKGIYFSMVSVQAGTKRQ
MDR1a (P-gp, ABCB1), sequence (P43245 whole entry): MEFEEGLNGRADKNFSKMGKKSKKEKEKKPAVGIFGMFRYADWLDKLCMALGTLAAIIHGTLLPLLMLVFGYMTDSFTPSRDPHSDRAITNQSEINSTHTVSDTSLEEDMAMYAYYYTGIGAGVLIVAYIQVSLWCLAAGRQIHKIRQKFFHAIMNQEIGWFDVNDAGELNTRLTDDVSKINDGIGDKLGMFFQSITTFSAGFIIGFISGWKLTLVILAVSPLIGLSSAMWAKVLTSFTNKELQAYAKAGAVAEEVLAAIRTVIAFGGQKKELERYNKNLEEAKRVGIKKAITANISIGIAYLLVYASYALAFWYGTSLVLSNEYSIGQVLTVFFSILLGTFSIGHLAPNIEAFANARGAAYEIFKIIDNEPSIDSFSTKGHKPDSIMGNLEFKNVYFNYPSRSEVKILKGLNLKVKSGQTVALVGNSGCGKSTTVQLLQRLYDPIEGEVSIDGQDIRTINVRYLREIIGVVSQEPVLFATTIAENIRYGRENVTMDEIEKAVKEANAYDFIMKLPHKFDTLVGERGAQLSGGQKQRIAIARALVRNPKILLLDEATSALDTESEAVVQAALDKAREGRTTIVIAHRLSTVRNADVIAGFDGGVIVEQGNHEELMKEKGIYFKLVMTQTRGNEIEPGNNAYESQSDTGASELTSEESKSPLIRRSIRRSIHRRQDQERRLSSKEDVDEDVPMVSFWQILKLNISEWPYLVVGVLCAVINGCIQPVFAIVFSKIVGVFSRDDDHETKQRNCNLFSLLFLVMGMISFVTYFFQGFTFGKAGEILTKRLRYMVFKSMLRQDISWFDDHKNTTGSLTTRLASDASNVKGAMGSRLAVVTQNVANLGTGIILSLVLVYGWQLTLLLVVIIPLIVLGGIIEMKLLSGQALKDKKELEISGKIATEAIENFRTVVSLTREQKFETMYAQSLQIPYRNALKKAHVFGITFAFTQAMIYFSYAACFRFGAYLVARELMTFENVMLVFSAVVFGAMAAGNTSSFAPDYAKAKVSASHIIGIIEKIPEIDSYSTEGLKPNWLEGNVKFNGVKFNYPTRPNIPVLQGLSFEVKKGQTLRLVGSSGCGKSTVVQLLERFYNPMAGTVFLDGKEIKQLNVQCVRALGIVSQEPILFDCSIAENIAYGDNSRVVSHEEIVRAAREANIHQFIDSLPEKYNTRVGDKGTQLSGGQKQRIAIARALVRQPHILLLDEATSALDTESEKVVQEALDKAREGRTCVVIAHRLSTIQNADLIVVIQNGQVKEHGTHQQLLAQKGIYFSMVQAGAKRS
Description for MDR1 (P-gp, ABCB1): Efflux ratio assessed as human MDR1-mediated directional transport ratio from basolateral to apical over apical to basolateral by cell based assay
Description for MDR1a (P-gp, ABCB1): Efflux ratio assessed as rat MDR1a-mediated directional transport ratio from basolateral to apical over apical to basolateral by cell based assay

For the compound `C[C@H]1CCCC[C@@H]1NC(=O)c1cc(CN2CCC(C#N)(c3ccccn3)CC2)c2ccccn2c1=O`, the outcome in data set [1], in data set [2] and in data set [3] was inactive. For the same compound, the IP in data set [4] was determined as 190 nM.
For `Cn1cc(NC(=O)c2cc(CN3CCC(C#N)(c4ccccn4)CC3)c3ccccn3c2=O)nn1`, the result in [1], in data set [2] and in [3] was inactive. The IP in data set [4] turned out to be 1300 nM.
Turning to `N#CC1(c2ccccn2)CCN(Cc2cc(C(=O)N[C@@H]3CCCC[C@H]3O)c(=O)n3ccccc23)CC1`, the result in data set [1], in data set [2] and in data set [3] was inactive. Besides, the IP in [4] came to 220 nM.
Turning to `N#CC1(c2ccccn2)CCN(Cc2cc(C(=O)NC3CCSCC3)c(=O)n3ccccc23)CC1`, the outcome in [1], in [2] and in [3] was inactive. Besides, the IP in data set [4] is 344 nM.
Turning to `N#CC1(c2ccccn2)CCN(Cc2cc(C(=O)Nc3ccccn3)c(=O)n3ccccc23)CC1`, the outcome in [1], in data set [2] and in data set [3] was inactive. Also, the IP in data set [4] turned out to be 640 nM.
Regarding `Cc1ccc(N2CCN(Cc3cc(C(=O)N[C@H]4CCCC[C@@H]4O)c(=O)n4ccccc34)CC2)nc1`, the fraction unbound was 0.287 in [5] and 0.399 in [7]. Moreover, the outcome in [1], in data set [2] and in data set [3] was inactive. The apparent permeability coefficient (Papp) in data set [6] is 23 ×10⁻⁶ cm/s. Also, in [4], the IP turned out to be 174 nM.
As to `N#CC1(c2ccccn2)CCN(Cc2cc(C(=O)N3CCCc4ccccc43)c(=O)n3ccccc23)CC1`, the result in data set [1], in data set [2] and in data set [3] was inactive. The IP in data set [4] stood at 7800 nM.
Regarding `CN(C(=O)c1cc(CN2CCC(C#N)(c3ccccn3)CC2)c2ccccn2c1=O)C1CCOCC1`, the outcome in [1], in data set [2] and in data set [3] was inactive. In data set [4], the IP worked out at 4400 nM.
Consider `N#CC1(c2ccccn2)CCN(Cc2cc(C(=O)NC3CCCOC3)c(=O)n3ccccc23)CC1` (centres undefined), for which the outcome in data set [1], in [2] and in data set [3] was inactive. For the same compound, in [4], the IP stood at 2600 nM.
`COc1ccc(Cn2cc(C(=O)Nc3ccccc3C)c(=O)c3ccccc32)cc1`: the outcome in [1], in data set [2] and in data set [3] was inactive. Also, in [4], the IP is 23000 nM.
For `N#CC1(c2ccccn2)CCN(Cc2cc(C(=O)NC3CCCCCC3)c(=O)n3ccccc23)CC1`, the outcome in data set [1], in [2] and in data set [3] was inactive. Also, the IP in data set [4] came out at 304 nM.
In the case of `N#CC1(c2ccccn2)CCN(Cc2cc(C(=O)N[C@H]3CCCC[C@@H]3O)c(=O)n3ccccc23)CC1`, the results for the fraction unbound in data set [5] and in data set [7] were 0.14 and 0.48, respectively. Also, the outcome in data set [1], in data set [2] and in data set [3] was inactive. Also, the Papp in [6] was found to be 29 ×10⁻⁶ cm/s. In addition, the IP in data set [4] worked out at 31 nM.
`N#CC1(c2ccccn2)CCN(Cc2cc(C(=O)N3CCCC3)c(=O)n3ccccc23)CC1`: the result in data set [1], in data set [2] and in data set [3] was inactive. Moreover, in data set [4], the IP worked out at 23000 nM.
On to `Cc1cccc2c1N(C(=O)c1cc(CN3CCC(C#N)(c4ccccn4)CC3)c3ccccn3c1=O)CCC2`, for which the outcome in [1], in data set [2] and in data set [3] was inactive. The IP in data set [4] came to 4400 nM.
Turning to `CS[C@H]1CCCC[C@@H]1NC(=O)c1cc(CN2CCC(C#N)(c3ccccn3)CC2)c2ccccn2c1=O`, the result in [1], in [2] and in [3] was inactive. In data set [4], the IP was 177 nM.
In the case of `N#CC1(c2ccccn2)CCN(Cc2cc(C(=O)NC3CCCC3)c(=O)n3ccccc23)CC1`, the result in [1], in data set [2] and in [3] was inactive. The IP in data set [4] is 780 nM.
Turning to `N#CC1(c2ccccn2)CCN(Cc2cc(C(=O)NC3CC3)c(=O)n3ccccc23)CC1`, the result in [1], in data set [2] and in [3] was inactive. The IP in data set [4] was found to be 2200 nM.
On to `N#CC1(c2ccccn2)CCN(Cc2cc(C(=O)NC3CCC3)c(=O)n3ccccc23)CC1`, for which the outcome in data set [1], in data set [2] and in data set [3] was inactive. Also, the IP in data set [4] came to 980 nM.
With `Cc1ccccc1NC(=O)c1cc(CN2CCC(C#N)(c3ccccn3)CC2)c2ccccn2c1=O`, the result in data set [1], in data set [2] and in data set [3] was inactive. Moreover, the IP in [4] stood at 2400 nM.
For the compound `C[C@@]1(NC(=O)c2cc(CN3CCC(C#N)(c4ccccn4)CC3)c3ccccn3c2=O)CCCC[C@H]1O`, the outcome in [1], in data set [2] and in data set [3] was inactive. For the same compound, the efflux ratio on MDR1a (P-gp, ABCB1) is 12; on MDR1 (P-gp, ABCB1), 10. In data set [6], this compound gave a Papp of 28 ×10⁻⁶ cm/s. In data set [4], the IP was greater than 20000 nM.
Regarding `COc1ccc(Cn2cc(C(=O)NC3CCCCC3)c(=O)c3ccccc32)cc1`, the outcome in [1], in data set [2] and in data set [3] was inactive. Moreover, the IP in data set [4] is 14000 nM.
In the case of `CNC(=O)c1cc(CN2CCC(C#N)(c3ccccn3)CC2)c2ccccn2c1=O`, the result in [1], in data set [2] and in [3] was inactive. For the same compound, the IP in data set [4] came to 4300 nM.
Regarding `C[C@@]1(O)CCCC[C@H]1NC(=O)c1cc(CN2CCC(C#N)(c3ccccn3)CC2)c2ccccn2c1=O`, the outcome in data set [1], in [2] and in data set [3] was inactive. Moreover, the IP in [4] was 93 nM.
`N#CC1(c2ccccn2)CCN(Cc2cc(C(N)=O)c(=O)n3ccccc23)CC1`: the result in data set [1], in data set [2] and in data set [3] was inactive. In addition, in data set [4], the IP was determined as 1900 nM.
Turning to `CO[C@H]1CCCC[C@@H]1NC(=O)c1cc(CN2CCC(C#N)(c3ccccn3)CC2)c2ccccn2c1=O`, the outcome in data set [1], in data set [2] and in data set [3] was inactive. Besides, the IP in data set [4] was found to be 381 nM.

The Papp is a coefficient for how fast a substance crosses the barrier. Read a low Papp as slow passage. As a reminder, the efflux ratio is the permeability from basolateral to apical divided by that in the opposite direction, in the common usage.

For the origin of these results see ChEMBL document CHEMBL2203078, “Identification of amides as carboxylic Acid surrogates for quinolizidinone-based m1 positive allosteric modulators” (ACS Med Chem Lett, 2012).
